Measurements from patent US20260007597A1, “COMPOSITIONS AND METHODS FOR TREATMENT OF VIRUS-INDUCED AIRWAY FIBROSIS” (priority 2022, published 2026).
“Also recorded” adds a separate entry of the source.

Assays:
[1] = tested on: pSARS-2 infected NHBE cells (infection-induced cell surface shedding of profibrotic enzymes); type: cell-based, human
[2] = tested on: Wuhan pSARS infected NHBE supernatants; type: cell-based, human
[3] = tested on: SARS-COV-2 pseudovirus (pSARS-2) infected NHBE cells; type: cell-based, human; conditions: inhibitor added during clotting assay (5 U/ml hirudin, 5 μM dabigatran, 5 μM argatroban), turbidity 350 nm / confocal
[4] = tested on: replication competent SARS-COV-2 infected NHBE cells; type: cell-based, human; conditions: WA-1, beta and delta strains
thrombin = thrombin (Homo sapiens, UniProt P00734); type: biochemical; conditions: thrombin ~0.2 U/ml; stoichiometric concentration of hirudin

Row | Compound | fibrin clot formation, inhibitor present during the viral infection [1] | fibrin clotting step, inhibitor added post-infection [2] | infection-induced fibrin clot formation [3] | fibrin clotting induced by replication competent SARS-CoV-2 infection of NHBE cells [4] | thrombin induced fibrin clotting (thrombin)
1 | CNC(=O)[C@H](Cc1ccccc1)NC(=O)[C@H](CC(C)C)[C@H](CSc1cccs1)C(=O)NO [BB-94, batimastat] | significantly reduced; also recorded: inhibited; also recorded: reduced fibrin clot formation | did not inhibit | – | – | –
2 | CC1CNc2c(cccc2S(=O)(=O)N[C@@H](CCCNC(=N)N)C(=O)N2CC[C@@H](C)C[C@@H]2C(=O)O)C1 (stereo partly shown) [argatroban] | – | – | inhibited | – | –
3 | CC1(C)SCCN(S(=O)(=O)c2ccc(Oc3ccncc3)cc2)[C@H]1C(=O)NO [prinomastat] | significantly reduced; also recorded: inhibited | – | – | – | –
4 | hirudin | – | – | completely suppressed | inhibited | inhibition
